Experimental data published in patent publication US20040038894A1, “Compounds for modulating cell negative regulations and biological applications thereof” (INSTITUT NATIONAL DE LA SANTE ET DE LA RECHERCHE MEDICALE …, priority 1996, published 2004).
Where a SMILES comes first, the peptide text is derived from it.

What was measured:
GST-SHP-1.SH2(N) = target: T1, GST-SHP-1.SH2(N) (Mus musculus, UniProt P29351); assay: Surface plasmon resonance (BIAcore), SHP-1 N-SH2 domain; assay type: binding, murine; conditions: for koff / kon: phosphorylated peptide immobilized, 5 μl/min
T1 construct: recombinant fusion proteins corresponding to the isolated N- and C-SH2 domains of SHP-1; made in house; host or cells: E. coli DH5α
T1 sequence (P29351 4-100 limits assumed): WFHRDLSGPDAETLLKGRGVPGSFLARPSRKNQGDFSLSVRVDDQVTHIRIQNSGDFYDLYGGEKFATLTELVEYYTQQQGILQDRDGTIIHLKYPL
Protocol: (§1) Fusion proteins and surface plasmon resonance analysis. Surface plasmon resonance (SPR) measurements were performed on a BIAcore™ (Pharmacia). The GST-SHP-1.SH2(NC), GST-SHP-1.SH2(N), GST-SHP-1.SH2(C), GST-SHIP.SH2 fusion proteins generated from the murine phosphatase cDNA, were purified from DH5α lysates. Briefly, overnight culture at 37° C. in LB medium containing 50 μg/ml ampicillin was diluted 1/10 in fresh medium, and incubated until the absorbance at 600 nm reaches 1-2. At that point, IPTG was added (1 mM), and incubation continued for an additional 4 hours at 37° C. After centrifugation, bacteria pellet was resuspended in TENGN buffer (50 mM Tris pH 8, 1 mM EDTA, 10% glycerol, 1% NP40, 1 mM DTT, 1 mM PMSF, 10 μg/ml aprotinin and 10 μg/ml leupeptine). Bacteria were lysed by sonication. After centrifugation, supernatant was incubated with Glutathione-Sepharose 4B beads (Pharmacia) overnight at 4° C. with slow shaking. After 3 washes with 50 mM Tris pH 8, elution of the fusion protein was carried out using 50 mM Tris pH 8 supplemented with 10 mM reduced glutathione. Before their use in BIAcore™ experiments, fusion proteins were dialyzed in HBS buffer (10 mM HEPES, 150 mM NaCl, 3.4 mM EDTA). Protein purity was assessed by 12.5% SDS-PAGE, and Coomassie blue staining. The running buffer used in all BIAcore™ experiments consisted of HBS buffer supplemented with 0.05% surfactant P20. For preparation of microchips coated with phosphorylated peptides, immunopure streptavidine (Sigma) was first immobilized onto CMS-sensorchip. Then, biotinylated peptides were injected, and their binding to streptavidine-coated microchips was assessed using anti-phosphotyrosine 4G10 mAb (UHI).
(§2) The measurement of phosphorylated p58.2 peptide binding to GST-SHP-1.SH2(N) and GST-SHP-1.SH2(C) fusion proteins was at a constant 5 μl/min flow rate. In the representative experiment of which results are reported in the above table I, 130 and 160 RU of respectively p58.2.1 and p58.2.2 peptides were immobilized on microchips. The regeneration was performed using HBS buffer supplemented with 0.03% SDS. Results are expressed as corrected resonance units (CRU) corresponding to the raw RU values subtracted from background RU value due to the injection medium. […] koff and kon were calculated from three independent measurements using the BLAevaluation 2.0 software. Kd was calculated from koff/kon.

GST-SHP-1.SH2(C) = target: T2, GST-SHP-1.SH2(C) (Mus musculus, UniProt P29351); assay: Surface plasmon resonance (BIAcore), SHP-1 C-SH2 domain; assay type: binding, murine; conditions: phosphorylated peptide immobilized; 5 μl/min
T2 construct: recombinant fusion proteins corresponding to the isolated N- and C-SH2 domains of SHP-1; made in house; host or cells: E. coli DH5α
T2 sequence (P29351 110-213 limits assumed): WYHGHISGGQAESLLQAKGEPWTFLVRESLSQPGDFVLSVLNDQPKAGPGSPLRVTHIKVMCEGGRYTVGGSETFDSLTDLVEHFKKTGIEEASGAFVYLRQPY
Protocol: as §1, §2

SMILES | Kd (GST-SHP-1.SH2(N)) [nM] | koff (GST-SHP-1.SH2(N)) [s⁻¹] | kon (GST-SHP-1.SH2(N)) [M⁻¹ s⁻¹] | koff (GST-SHP-1.SH2(C)) [s⁻¹] | kon (GST-SHP-1.SH2(C)) [M⁻¹ s⁻¹]
CC(C)C[C@H](NC(=O)[C@H](CCC(N)=O)NC(=O)[C@H](C)NC(=O)[C@H](Cc1ccc(OP(=O)(O)O)cc1)NC(=O)[C@@H](NC(=O)[C@@H](NC(=O)[C@H](CCC(=O)O)NC(=O)[C@H](CCC(N)=O)NC(=O)[C@@H]1CCCN1C(=O)[C@H](CC(=O)O)NC(=O)[C@H](CCC(N)=O)NC(=O)[C@H](CCC(=O)O)NC(=O)[C@H](CC(=O)O)NC(=O)CCCC[C@@H]1SC[C@@H]2NC(=O)N[C@@H]21)C(C)C)[C@@H](C)O)C(=O)N[C@@H](CC(N)=O)C(=O)N[C@@H](Cc1c[nH]cn1)C(=O)O [p58.2.1, DEQDPQEVTY303AQLNH] (HELM PEPTIDE1{[O=C1N[C@H]2[C@H](CS[C@H]2CCCCC(=O)[*:2])N1].D.E.Q.D.P.Q.E.V.T.[O=C([C@H](Cc1ccc(OP(=O)(O)O)cc1)N[*:1])[*:2]].A.Q.L.N.H}$$$$V2.0) | 423 | 0.042 | 100000 | 0.0007 | 5000
CC[C@H](C)[C@H](NC(=O)[C@H](CC(=O)O)NC(=O)[C@@H](NC(=O)[C@@H]1CCCN1C(=O)[C@@H]1CCCN1C(=O)[C@@H](NC(=O)[C@H](CCCCN)NC(=O)[C@@H]1CCCN1C(=O)[C@H](CCCNC(=N)N)NC(=O)[C@H](CCC(N)=O)NC(=O)[C@H](CO)NC(=O)[C@@H]1CCCN1C(=O)[C@H](CCCNC(=N)N)NC(=O)CCCC[C@@H]1SC[C@@H]2NC(=O)N[C@@H]21)[C@@H](C)O)[C@@H](C)O)C(=O)N[C@H](C(=O)N[C@H](C(=O)N[C@@H](Cc1ccc(OP(=O)(O)O)cc1)C(=O)N[C@H](C(=O)N[C@@H](CCC(=O)O)C(=O)N[C@@H](CC(C)C)C(=O)N1CCC[C@H]1C(=O)N[C@@H](CC(N)=O)C(=O)N[C@@H](C)C(=O)N[C@@H](CCC(=O)O)C(=O)N1CCC[C@H]1C(=O)O)[C@@H](C)O)C(C)C)[C@@H](C)CC [p58.2.2, RP SQ RPKTPPTDIIVY333TELPNAEP] (HELM PEPTIDE1{[O=C1N[C@H]2[C@H](CS[C@H]2CCCCC(=O)[*:2])N1].R.P.S.Q.R.P.K.T.P.P.T.D.I.I.V.[O=C([C@H](Cc1ccc(OP(=O)(O)O)cc1)N[*:1])[*:2]].T.E.L.P.N.A.E.P}$$$$V2.0) | 3160 | 0.025 | 8000 | 0.0003 | 600
